Series [1] concerns the target JAK2 kinase (Homo sapiens (Human), UniProt O60674). Briefly: HTRF assay for inhibitory activity (IC50) against JAK2 kinase. Format: biochemical. The note with it: ATP 5 μM, kinase 0.05 nM. The procedure:
2. Assay for Inhibitory Activity (IC50) Against JAK2 Kinase
A testing platform for JAK2 kinase activity was established based on Homogeneous Time-Resolved Fluorescence (HTRF) assay, and the activities of the compounds were tested using the platform. The compounds were subjected to three-fold gradient dilution with 100% DMSO with a starting concentration of 1 mM (11 concentrations in total). 4 μL of diluted sample for each concentration was added to 96 μL of reaction buffer (50 mM HEPES, pH7.4, 10 mM MgCl2, 1 mM EDTA, 0.01% Tween-20, 0.005% BSA and 2 mM DTT) and mixed homogeneously. 2.5 μL of the resulting liquid was then added to a 384-well plate (OptiPlate-384, purchased from PerkinElmer), and 5 μL of JAK2 kinase (purchased from Carna, and the final concentration thereof is 0.05 nM) was added, and mixed homogeneously by centrifugation. Then 2.5 μL of a mixture of ATP (the final concentration is 5 μM) and TK peptide (HTRF® KinEASE™-TK, purchased from Cisbio, and the final concentration is 100 nM) was added to initiate the reaction (the total reaction volume is 10 μL). The 384-well plate was placed in an incubator to incubate for 120 min at 23° C. Then the reaction was terminated by adding 5 μL of Eu3+ cryptate-labled anti-phosphotyrosine antibody (purchased from Cisbio), and 5 μL of Streptavidin-XL-665 (HTRF® KinEASE™-TK, purchased from Cisbio). After incubated for 1 hr in the incubator, the fluorescence values were read on Envision (purchased from PerkinElmer). The excitation wavelength was 320 nm, and the emission wavelengths for detection were 665 nm and 620 nm. The enzymatic activity was represented by a ratio of the two readout at the two emission wavelengths. The enzymatic activity for each compound was tested at 11 concentrations, and IC50 values of the compounds were obtained by calculating the data using GraFit6.0 software (Erithacus Software).

Series [2] addresses TrkA^G667C (Kinase domain) kinase (Homo sapiens (Human), UniProt P04629, G667C). Briefly: HTRF assay for inhibitory activity (IC50) against TrkA^G667C kinase. Format: biochemical. The settings on record: mutant TrkA kinase, ATP 15 μM, kinase 0.5 nM. The procedure:
3. Assay for Inhibitory Activity (IC50) Against TrkA^G667C Kinase
TrkA^G667C (Kinase domain) kinase was expressed in Sf9 cells (purchased from Invitrogen) using pIEX-Bac-4 (purchased from Merck), and purified by using Ni column affinity chromatography on AKTA Purifier (GE company). A testing platform for TrkA^G667C kinase activity was established based on Homogeneous Time-Resolved Fluorescence (HTRF) assay, and the activities of the compounds were tested using the platform. The compounds were subjected to five-fold gradient dilution with 100% DMSO with a starting concentration of 1 mM (8 concentrations in total). 4 μL of diluted sample for each concentration was added to 96 μL of reaction buffer (50 mM HEPES, pH7.4, 5 mM MgCl2, 1 mM NaVO3, 0.001% Tween-20, 0.01% BSA and 1 mM DTT) and mixed homogeneously to be used as a 4* compound. The reaction buffer was used to formulate 2* TrkA^G667C kinases (the final concentration was 0.5 nM) and a 4* substrate mixture (ATP+TK peptide) (wherein, the final concentration of ATP was 15 μM; TK peptide, HTRF® KinEASE™-TK, was purchased from Cisbio, and the final concentration thereof was 100 nM) for use. 2.5 μL of the 4* compound was added to a 384-well plate (OptiPlate-384, purchased from PerkinElmer), and then 5 μL of the 2* TrkA^G667C kinases were added, and mixed homogeneously by centrifugation. Then 2.5 μL of the 4* substrate mixture was added to initiate the reaction (the total reaction volume is 10 μL). The 384-well plate was placed in an incubator to incubate for 60 min at 23° C. Then the reaction was terminated by adding 5 μL of Eu3+ cryptate-labeled anti-phosphotyrosine antibody (HTRF KinEASE™-TK, purchased from Cisbio), and 5 μL of Streptavidin-XL-665 (HTRF® KinEASE™-TK, purchased from Cisbio). After incubated for 1 h in the incubator, the fluorescence values were read on Envision (purchased from PerkinElmer). The excitation wavelength was 320 nm, and the emission wavelengths for detection were 665 nm and 620 nm. The enzymatic activity was represented by a ratio of the two readout at the two emission wavelengths. […]
For orientation: In TR-FRET formats the signal depends on donor and acceptor labels being close together.

The target of series [3] is TrkC kinase (Homo sapiens (Human), UniProt Q16288). As to the kind of experiment: HTRF assay for inhibitory activity (IC50) against NTRK kinase, TrkC. Format: biochemical. The note with it: ATP 20 μM, kinase 1 nM. The procedure: (§1) 1. Assay for Inhibitory Activity (IC50) Against NTRK Kinase
TrkC kinase, sequence (Q16288 32-839): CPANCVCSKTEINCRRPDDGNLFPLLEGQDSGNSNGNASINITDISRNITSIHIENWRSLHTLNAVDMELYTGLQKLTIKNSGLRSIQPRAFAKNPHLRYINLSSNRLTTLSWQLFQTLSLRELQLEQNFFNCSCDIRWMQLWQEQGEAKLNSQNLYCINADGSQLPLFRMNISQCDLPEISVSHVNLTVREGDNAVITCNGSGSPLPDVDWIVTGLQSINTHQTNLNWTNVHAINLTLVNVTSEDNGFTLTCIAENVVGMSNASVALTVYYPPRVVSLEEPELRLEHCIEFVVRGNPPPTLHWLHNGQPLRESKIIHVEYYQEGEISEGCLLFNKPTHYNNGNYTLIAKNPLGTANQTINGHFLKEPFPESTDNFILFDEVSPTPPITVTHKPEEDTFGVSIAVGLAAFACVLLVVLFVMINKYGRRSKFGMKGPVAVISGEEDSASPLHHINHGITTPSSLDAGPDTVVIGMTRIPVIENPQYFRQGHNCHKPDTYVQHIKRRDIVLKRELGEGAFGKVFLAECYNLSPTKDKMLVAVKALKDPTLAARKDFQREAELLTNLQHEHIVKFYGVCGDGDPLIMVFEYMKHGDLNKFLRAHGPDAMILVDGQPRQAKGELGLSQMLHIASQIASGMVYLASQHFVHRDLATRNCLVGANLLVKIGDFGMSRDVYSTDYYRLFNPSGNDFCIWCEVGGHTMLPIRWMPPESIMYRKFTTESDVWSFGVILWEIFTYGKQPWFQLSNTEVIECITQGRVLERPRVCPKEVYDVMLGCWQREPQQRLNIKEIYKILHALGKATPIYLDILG
(§2) A testing platform for TrkA, TrkB and TrkC kinase activity was established based on Homogeneous Time-Resolved Fluorescence (HTRF) assay, and the activities of the compounds were tested using the platform. The compounds were subjected to three-fold gradient dilution with 100% DMSO with a starting concentration of 1 mM (11 concentrations in total). 4 μL of diluted sample for each concentration was added to 96 μL of reaction buffer (50 mM HEPES, pH7.4, 5 mM MgCl2, 1 mM NaVO3, 0.001% Tween-20, 0.01% BSA and 1 mM DTT) and mixed homogeneously to be used as a 4* compound. The reaction buffer was used to formulate 2* TrkA, TrkB and TrkC kinases (purchased from Carna Biosciences 08-186, 08-187, 08-197, and the final concentrations thereof were 0.5 nM, 0.1 nM, and 1 nM, respectively) and 4* substrate mixture (ATP+TK peptide) (wherein the final concentrations of ATP were 40 μM, 50 μM, and 20 μM, respectively; TK peptide, HTRF® KinEASE™-TK, was purchased from Cisbio, and the final concentration thereof was 100 nM) for use. 2.5 μL of the 4* compound was added to a 384-well plate (OptiPlate-384, purchased from PerkinElmer), and then 5 μL of the 2* TrkA, TrkB and TrkC kinases were added, and mixed homogeneously by centrifugation. Then 2.5 μL of the 4* substrate mixture was added to initiate the reaction (the total reaction volume is 10 μL). The 384-well plate was placed in an incubator and incubated for 60 min at 23° C. Then the reaction was terminated by adding 5 μL of Eu3+ cryptate-labeled anti-phosphotyrosine antibody (HTRF® KinEASE™-TK, purchased from Cisbio), and 5 μL of Streptavidin-XL-665 (HTRF® KinEASE™-TK, purchased from Cisbio). After incubated for 1 hr in the incubator, the fluorescence values were read on Envision (purchased from PerkinElmer). The excitation wavelength was 320 nm, and the emission wavelengths for detection were 665 nm and 620 nm. The enzymatic activity was represented by a ratio of the two readout at the two emission wavelengths. The enzymatic activity for each compound was tested at 11 concentrations, and IC50 values of the compounds were obtained by calculating the data using GraFit6.0 software (Erithacus Software).

Series [4] has as its target TrkA kinase (Homo sapiens (Human), UniProt P04629). As to the kind of experiment: HTRF assay for inhibitory activity (IC50) against NTRK kinase, TrkA. Format: biochemical. The settings on record: kinase 0.5 nM. The procedure:
as §1, §2

Series [5] concerns the target TrkB kinase (Homo sapiens (Human), UniProt Q16620). As to the kind of experiment: HTRF assay for inhibitory activity (IC50) against NTRK kinase, TrkB. The settings on record: ATP 50 μM, kinase 0.1 nM. Format: biochemical. The procedure: as §1, §2
A short description of series [6]: Pharmacokinetic assay in rats. Format: in vivo. The settings on record: rat, po, male SD rats, 5 mg/kg single intragastric administration, plasma; for AUC(0-inf): read-out: AUCINF_obs. The procedure:
Male SD rats were available from Beijing Vital River Laboratory Animal Technology Co., Ltd. The rats were allocated with three rats per group, and separately administered the suspension of a sample to be tested (5 mg/kg) by single intragastric administration. Before the experiment, the animals were fasted overnight, and the fasting time was from 10 hrs before administration to 4 hrs after administration. After administration, a blood sample was taken at 0.25 hr, 0.5 hr, 1 hr, 2 hrs, 4 hrs, 6 hrs, 8 hrs and 24 hrs. After the animals were narcotized with isoflurane using an anaesthesia machine for small animals, 0.3 mL of whole blood was taken from fundus venous plexus, and placed in a heparin anticoagulant tube. At 4° C., the sample was centrifuged at 4000 rpm for 5 min, and plasma was transferred to a centrifuge tube and preserved at −80° C. until the analysis was started. The sample in plasma was extracted by the protein precipitation method, and the extracted liquid was analyzed by LC/MS/MS.

Molecules are shown by their SMILES. Some results are limits rather than exact numbers.

TrkA kinase, sequence (P04629 33-796): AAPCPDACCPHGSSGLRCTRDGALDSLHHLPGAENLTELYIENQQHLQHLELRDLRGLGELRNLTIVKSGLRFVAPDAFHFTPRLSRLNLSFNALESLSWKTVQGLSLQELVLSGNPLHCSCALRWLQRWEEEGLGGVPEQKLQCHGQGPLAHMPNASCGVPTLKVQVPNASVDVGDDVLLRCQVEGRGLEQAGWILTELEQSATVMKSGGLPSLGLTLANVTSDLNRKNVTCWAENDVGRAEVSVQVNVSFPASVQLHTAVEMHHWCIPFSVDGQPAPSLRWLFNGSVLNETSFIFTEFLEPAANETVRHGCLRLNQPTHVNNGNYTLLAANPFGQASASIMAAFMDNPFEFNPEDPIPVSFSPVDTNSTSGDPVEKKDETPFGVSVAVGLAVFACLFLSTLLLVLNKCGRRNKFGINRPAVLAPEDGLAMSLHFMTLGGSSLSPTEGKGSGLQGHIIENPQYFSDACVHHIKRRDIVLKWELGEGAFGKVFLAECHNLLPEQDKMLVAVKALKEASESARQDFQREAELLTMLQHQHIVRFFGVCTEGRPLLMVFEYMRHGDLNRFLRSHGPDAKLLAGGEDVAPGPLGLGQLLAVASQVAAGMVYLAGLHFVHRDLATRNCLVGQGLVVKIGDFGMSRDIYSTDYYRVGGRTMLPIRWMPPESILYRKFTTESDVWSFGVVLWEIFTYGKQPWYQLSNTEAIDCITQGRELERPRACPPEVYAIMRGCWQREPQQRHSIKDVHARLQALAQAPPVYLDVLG
TrkB kinase, sequence (Q16620 32-822): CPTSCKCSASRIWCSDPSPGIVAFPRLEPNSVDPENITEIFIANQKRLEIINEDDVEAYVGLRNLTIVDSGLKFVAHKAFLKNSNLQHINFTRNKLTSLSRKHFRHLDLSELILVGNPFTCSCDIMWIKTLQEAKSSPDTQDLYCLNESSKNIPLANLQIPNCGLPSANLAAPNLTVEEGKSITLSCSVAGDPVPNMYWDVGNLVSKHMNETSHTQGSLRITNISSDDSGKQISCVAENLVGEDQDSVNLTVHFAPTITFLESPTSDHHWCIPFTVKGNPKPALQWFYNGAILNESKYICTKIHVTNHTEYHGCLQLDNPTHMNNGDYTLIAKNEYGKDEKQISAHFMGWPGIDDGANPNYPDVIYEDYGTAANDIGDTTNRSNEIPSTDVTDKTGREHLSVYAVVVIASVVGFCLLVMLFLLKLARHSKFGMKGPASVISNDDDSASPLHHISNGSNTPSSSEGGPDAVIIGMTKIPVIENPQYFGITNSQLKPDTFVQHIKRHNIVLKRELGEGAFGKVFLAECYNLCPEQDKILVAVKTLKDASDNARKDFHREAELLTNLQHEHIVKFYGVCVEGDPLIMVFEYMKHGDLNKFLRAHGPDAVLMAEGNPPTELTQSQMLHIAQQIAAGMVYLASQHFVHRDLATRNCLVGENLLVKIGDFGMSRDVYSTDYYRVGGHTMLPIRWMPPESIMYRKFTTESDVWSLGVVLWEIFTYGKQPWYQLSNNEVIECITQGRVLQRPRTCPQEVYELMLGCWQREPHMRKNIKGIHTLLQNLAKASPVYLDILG
JAK2 kinase, sequence (O60674 whole entry): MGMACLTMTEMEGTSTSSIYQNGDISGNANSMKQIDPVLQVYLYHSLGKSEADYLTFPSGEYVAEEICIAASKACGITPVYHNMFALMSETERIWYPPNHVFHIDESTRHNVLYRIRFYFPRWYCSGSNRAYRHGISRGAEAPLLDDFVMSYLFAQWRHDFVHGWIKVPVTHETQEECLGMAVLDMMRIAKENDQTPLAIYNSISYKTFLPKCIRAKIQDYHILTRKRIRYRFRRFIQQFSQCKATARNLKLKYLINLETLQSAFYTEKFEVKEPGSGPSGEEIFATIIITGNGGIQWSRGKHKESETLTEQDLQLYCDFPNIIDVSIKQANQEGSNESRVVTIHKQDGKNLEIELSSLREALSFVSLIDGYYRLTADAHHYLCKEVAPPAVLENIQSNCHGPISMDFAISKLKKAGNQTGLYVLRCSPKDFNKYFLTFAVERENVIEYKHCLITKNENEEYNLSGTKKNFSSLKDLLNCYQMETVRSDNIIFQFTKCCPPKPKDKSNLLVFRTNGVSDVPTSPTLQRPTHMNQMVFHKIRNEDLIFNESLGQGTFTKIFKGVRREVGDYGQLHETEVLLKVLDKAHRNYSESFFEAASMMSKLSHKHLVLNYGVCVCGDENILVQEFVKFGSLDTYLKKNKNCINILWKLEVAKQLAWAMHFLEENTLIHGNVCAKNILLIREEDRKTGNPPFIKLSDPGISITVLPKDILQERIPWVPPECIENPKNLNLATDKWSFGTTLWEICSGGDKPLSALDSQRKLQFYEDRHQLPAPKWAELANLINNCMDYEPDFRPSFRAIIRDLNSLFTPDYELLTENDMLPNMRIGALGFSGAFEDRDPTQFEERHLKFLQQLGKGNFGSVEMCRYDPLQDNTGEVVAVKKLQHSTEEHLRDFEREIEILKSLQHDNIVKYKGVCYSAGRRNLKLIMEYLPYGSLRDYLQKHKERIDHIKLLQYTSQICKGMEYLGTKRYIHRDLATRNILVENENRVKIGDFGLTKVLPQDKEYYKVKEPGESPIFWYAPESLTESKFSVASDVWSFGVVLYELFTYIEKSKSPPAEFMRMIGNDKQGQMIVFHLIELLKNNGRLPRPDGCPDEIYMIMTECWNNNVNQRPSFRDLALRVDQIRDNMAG
TrkA^G667C (Kinase domain) kinase, sequence (P04629 510-781 G667C): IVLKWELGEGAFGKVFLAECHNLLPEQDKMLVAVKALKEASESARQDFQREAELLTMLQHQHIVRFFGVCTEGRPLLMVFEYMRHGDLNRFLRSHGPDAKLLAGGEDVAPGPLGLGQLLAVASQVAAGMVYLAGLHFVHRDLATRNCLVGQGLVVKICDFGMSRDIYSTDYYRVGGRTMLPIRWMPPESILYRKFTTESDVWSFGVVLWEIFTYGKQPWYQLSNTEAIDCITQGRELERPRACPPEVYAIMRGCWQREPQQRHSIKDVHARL

Turning to `Nc1nn2ccc(N3CCC[C@@H]3c3cc(F)ccc3F)nc2c1C(=O)N[C@H]1CC[C@H](O)CC1` [Example 12, 2-amino-5-((R)-2-(2,5-difluorophenyl)pyrrolidin-1-yl)-N-((trans)-4-hydroxycyclohexyl)pyrazolo[1,5-a]pyrimidine-3-carboxamide], the 50% inhibitory concentration (IC50) (usually the concentration at which inhibition is half-maximal) in series [1] is > 20 nM; in series [2], < 1 nM; in series [3], < 1 nM; in series [4] (Table 1, ATP 40 μM) it was < 1 nM; in series [4] (Table 2, ATP 40 μM) it was < 1 nM; in series [5] it was < 1 nM.
As for `CNC(=O)c1c(N)nn2ccc(N3C[C@@H](F)C[C@@H]3c3cc(F)ccc3F)nc12` [Example 39, 2-amino-5-((2R,4S)-2-(2,5-difluorophenyl)-4-fluoropyrrolidin-1-yl)-N-methylpyrazolo[1,5-a]pyrimidine-3-carboxamide], the 50% inhibitory concentration (IC50) in series [1] was > 10 nM; in series [2], < 10 nM; in series [3], < 1 nM; in series [4] (Table 1, ATP 40 μM) it was < 1 nM; in series [4] (Table 2, ATP 40 μM), < 1 nM; in series [5], < 1 nM. Moreover, in series [6], the maximum concentration (Cmax) (as a rule, the highest concentration seen after dosing) stood at 276 ng/mL. For the same molecule, the time of peak concentration (Tmax) (usually the time from dosing to the highest level) in series [6] came to 1.67 h. Also, in series [6], the half-life (in general, the time needed for the level to fall by half in the phase considered) is 1.46 h. The AUC(0-inf) in series [6] came to 876 ng·h/mL.
Consider `NC(=O)c1c(N)nn2ccc(N3C[C@@H](F)C[C@@H]3c3cc(F)ccc3F)nc12` [Example 36, 2-amino-5-((2R,4S)-2-(2,5-difluorophenyl)-4-fluoropyrrolidin-1-yl)pyrazolo[1,5-a]pyrimidine-3-carboxamide], for which the IC50 was > 100 nM in series [1]; < 10 nM in series [2]; < 1 nM in series [3]; < 1 nM in series [4] (Table 1, ATP 40 μM); < 1 nM in series [4] (Table 2, ATP 40 μM); < 1 nM in series [5]. The molecule also showed a Cmax in series [6] of 488 ng/mL. Also, in series [6], the Tmax stood at 1 h. This molecule had a half-life in series [6] of 3.09 h. The AUC(0-inf) in series [6] is 2240 ng·h/mL.
For the molecule `CCNc1nn2ccc(N3CCC[C@@H]3c3cc(F)ccc3F)nc2c1C(=O)OCC` [Example 22, ethyl (R)-5-(2-(2,5-difluorophenyl)pyrrolidin-1-yl)-2-(ethylamino)pyrazolo[1,5-a]pyrimidine-3-carboxylate], the IC50 in series [4] (Table 1, ATP 40 μM) was < 100 nM.
Consider `Nc1nn2ccc(N3CCC[C@@H]3c3cc(F)ccc3F)nc2c1C(=O)Nc1ccc(F)cc1` [Example 14, (R)-2-amino-5-(2-(2,5-difluorophenyl)pyrrolidin-1-yl)-N-(4-fluorophenyl)pyrazolo[1,5-a]pyrimidine-3-carboxamide], for which the IC50 in series [1] is > 500 nM; in series [3] it was < 10 nM; in series [4] (Table 1, ATP 40 μM) it was < 1 nM; in series [4] (Table 2, ATP 40 μM), < 1 nM; in series [5] it was < 10 nM.
As to `NC(=O)c1c(N)nn2ccc(N3CCC[C@@H]3c3cc(F)ccc3F)nc12` [Example 4, (R)-2-amino-5-(2-(2,5-difluorophenyl)pyrrolidin-1-yl)pyrazolo[1,5-a]pyrimidine-3-carboxamide], the half-maximal inhibitory concentration (IC50) is > 2000 nM in series [1]; < 10 nM in series [3]; < 1 nM in series [4] (Table 1, ATP 40 μM); < 1 nM in series [4] (Table 2, ATP 40 μM); < 10 nM in series [5].
Consider `CCOC(=O)c1c(N)nn2ccc(N3CCCC3c3cc(F)ccc3F)nc12` (stereo not drawn) [Example 5, ethyl 2-amino-5-(2-(2,5-difluorophenyl)pyrrolidin-1-yl)pyrazolo[1,5-a]pyrimidine-3-carboxylate], for which the IC50 in series [4] (Table 1, ATP 40 μM) is < 1 nM.
The same measure, in the same setting: as for `CCOC(=O)c1c(NC)nn2ccc(N3CCC[C@@H]3c3cc(F)ccc3F)nc12` [Example 20, ethyl (R)-5-(2-(2,5-difluorophenyl)pyrrolidin-1-yl)-2-(methylamino)pyrazolo[1,5-a]pyrimidine-3-carboxylate], the figure is < 1000 nM.

(Values after patent US10829492B2, “Amino pyrazolopyrimidine compound used as neurotrophic factor tyrosine kinase receptor inhibitor” (CHIA TAI TIANQING PHARMACEUTICAL GROUP CO., LTD., priority 2016, dated 2020).)
